These are literature values, as cited in patent US20140329770A1, “Compositions Comprising Phytoestrogens Receptor Beta Agonists and Dietary Fibers for Chemopreventive Treatment of Sporadic Adenomatous Polyposis” (CM&D PHARMA LIMITED, priority 2011, published 2014).

SMILES strings stand for the structures.

One data set has as its system rectal ACF. The conditions noted are these: 6-months intervention, subjects at increased risk for CRC.

As for `CC(C)c1c(C(=O)Nc2ccccc2)c(-c2ccccc2)c(-c2ccc(F)cc2)n1CC[C@@H](O)C[C@@H](O)CC(=O)O` [atovarstastin], in the data set with rectal ACF, the “Reduction in rectal ACF numbers compared with maltodextrins” value was “did not demonstrate significant reductions”.

In the case of `COc1cc(C2Oc3cc([C@H]4Oc5cc(O)cc(O)c5C(=O)[C@@H]4O)ccc3OC2CO)ccc1O` (stereo partly shown) [silybinin], in the data set with human SW480 CRC (feeding, nu/nu mice), the “Tumor growth of human SW480 CRC” value was “suppressed”. Besides, the Toxicity result with human SW480 CRC (mouse, in vivo) is “Without any apparent toxicity”.

On to `CC1=C(CC(=O)O)c2cc(F)ccc2/C1=C\c1ccc([S+](C)[O-])cc1` (stereo not shown) [sulindac], for which the “Reduction in rectal ACF numbers compared with maltodextrins” value in the data set on rectal ACF is listed as “did not demonstrate significant reductions”.
